The results in this text go back to patent publication US9914750B2, “Synthetic peptides and peptide mimetics” (University of Louisville Research Foundation, priority 2007, dated 2018).

“Also recorded” adds a separate entry of the source. No end group written: not given here.

Series [1] deals with LPS-binding protein (LBP). Nature of the series: Inhibition of LPS binding to LPS-binding protein (ELISA). The note with it: for Inhibition (Mean ± SEM) of LPS binding to LBP: relative to polymyxin B (100% inhibition), LPS preincubated with peptide. The method, then:
Analysis of the PSP sequence indicated three possible regions of biological activity. Initially, three peptides corresponding to the PSP sequence in these regions were designed and used in these studies. The initial step in the inflammatory cascade is the binding of LPS to LPS-binding protein. This binding was inhibited by preincubation of LPS with each of the three peptides. […] The binding of LPS to LPB was analyzed to ELISA. 0% inhibition (100% binding) was determined in the absence of inhibitors while 100% inhibition was determined in the presence of the inhibitor polymyxin B. The inhibition of each peptide is determined relative to the effect of polymyxin B.
On the technique in general: In an ELISA, binding on a coated surface is turned into a signal by an enzyme label.

The subject of the next series is sheep red blood cells. Kind of series: Hemagglutination assay. It counts as cell-based. Particulars: PBS, absence of serum, 2 h. On the procedure:
FIG. 22: Hemagglutination of sheep red blood cells. RBCs were washed in PBS and incubated for 2 h in microtiter plates in PBS±5% fetal calf serum. Peptide concentrations were 83 μg/ml. The microtiter plate was imaged. Agglutinated red blood cells form a wide mat of cells, while non-agglutinated cells form a button shaped pellet.
Briefly, unmodified sheep erythrocytes (Cappel, M P Biomedicals, Irvine, Calif.) were washed in PBS and suspended at 1% in PBS. Diluted erythrocytes and 20 μg/ml of each peptide in PBS were mixed in polypropylene microtiter plates (120 μl per well) and incubated for 2 h at 35° C. The plates were imaged on a Kodak Image station.

Series [2] has as its system P. aeruginosa PAO1. Nature of the series: MIC determination, broth dilution assay (growth OD 570 nm, pelleting in wells). It counts as cell-based, Pseudomonas aeruginosa. On the procedure:
(§1) FIGS. 5A and 5B: PSP peptides lack bacteriostatic activity. P. aeruginosa PAO1 or A. actinomycetemcomitans JP2 (10^5 cells/ml) were incubated overnight with two-fold serial dilutions of the indicated peptides. The OD was determined at 570 nm. The data for P. aeruginosa (FIG. 5A) are representative of six independent experiments. The data for A. actinomycetemcomitans (FIG. 5B) are representative of three independent experiments. Filled squares, lysozyme; open diamonds, no peptide; open triangles, KL-11; filled triangles, GK-7; open squares, GL-13; filled diamonds, LL-37. […] Lysozyme inhibits growth about 50%. None of the PSP peptides inhibit growth.
FIG. 6A-6C: GL13 causes bacterial cell spreading. Microtiter plates used to determine bacteriostatic activity (FIG. 5) were photographed after overnight incubation with serial dilutions of the indicated peptides. The diameter of the P. aeruginosa pellets in the presence of GL13 was determined and expressed relative to the peptide concentration in each well. A. Graph of the results. B and C are representative depictions of P. aeruginosa and A. actinomycetemcomitans, respectively, spreading in the presence of PSP peptides.
The minimal inhibitory concentration (MIC) of PSP peptides was tested using the broth dilution assay. […] Bacterial growth was quantitated by the optical density (OD) at 570 nm. […]
A general note: Broth dilution looks for growth in wells or tubes with falling amounts of substance.

For series [3], the system named is A. actinomycetemcomitans JP2. The series is described as above. It counts as cell-based, Aggregatibacter (Actinobacillus) actinomycetemcomitans. On the procedure:
as §1
The minimal inhibitory concentration (MIC) of PSP peptides was tested using the broth dilution assay. Briefly, overnight cultures of bacteria were diluted in Mueller-Hinton broth (MHB) (Difco) to 10^5 CFU/ml. Diluted bacteria (100 μl) and two-fold serial dilutions of peptides in 10 mM sodium phosphate, pH 7.4 (20 μl) were mixed in polypropylene microtiter plates and incubated for 24 h at 35° C. for P. aeruginosa or 48 h at 37° C. under reduced oxygen conditions for A. actinomycetemcomitans. Control samples were incubated with bacteria and two-fold serial dilutions of 20 μl 0.01% acetic acid in 10 mM sodium phosphate. Bacterial growth was quantitated by the optical density (OD) at 570 nm. […]

Series [4] concerns P. aeruginosa PAO1. Kind of series: Biofilm formation / bacterial adhesion assay, PVC microtiter plates, crystal violet. The note with it: 50 μg/ml, 6 h, aerobic. It counts as cell-based, Pseudomonas aeruginosa. The method, then: FIGS. 7A and 7B: PSP-peptides inhibit biofilm formation. P. aeruginosa PAO1 (overnight cultures, diluted 1:100 were incubated with 50 μg/ml of each peptide (LL37, GK7, GL13, KL11) or lysozyme for 6 h under aerobic (FIG. 7A) or reduced oxygen (anaerobic) (FIG. 7B) conditions. The OD 570 (growth) was determined and the attached cells were then quantitated by staining with crystal violet (biofilm). Growth and biofilm values were normalized against the mean of samples without peptides (HOAc) and expressed as mean±SEM. The data in panel A are from three independent experiments, N=22−24. The data in panel B are from two independent experiments, N=16. Lysozyme (Lyz) data are from a single experiment, N=8. *) different from Growth, P<0.002
(§2) Overnight cultures of P. aeruginosa PAO1 were diluted 1:100 in MHB and 100 μl/well were incubated with 5 μl of LL-37, GK-7, GL-13, KL-11 or lysozyme (1 mg/ml) in PVC microtiter plates. The plates were incubated for 6 h at 32° C. under aerobic or reduced oxygen conditions. Bacterial growth was quantitated spectrophotometrically at 570 nm. Twenty-five μl of 1% crystal violet in dH2O was added to each well and incubated 20 min at room temperature. The wells were emptied and washed three times in dH2O and then incubated for 30 min with 200 μl of 95% ethanol. The OD at 570 nm was determined as a measure of biofilm formation. Growth and biofilm values were normalized against the mean of samples incubated with 0.01% acetic acid without peptides.
as §2, with “μl of the bacterial suspension was mixed” for “μl/well were incubated”, “50 μg/ml” for “5 μl”, “lysozyme” for “lysozyme (1 mg/ml)”

A further series deals with P. aeruginosa. Kind of series: Antibacterial activity in vivo, Romaine lettuce infection model. Also on record: species or system Pseudomonas aeruginosa. Particulars: 200 μg/ml peptide injected with bacteria, scored after 2-3 days. The method, then: FIG. 4: Antibacterial activity in vivo. Romaine lettuce leaves were injected with P. aeruginosa (10^8 cells/nil) in the presence or absence of 200 μg/ml of antibacterial peptides. After 2-3 days incubation the injection sites were scored for infection on a scale of 0-100% relative to the no-bacteria (0% infection) and bacteria-only controls (PAO1) (100%). Data are from six independent experiments and are shown as mean±SEM, N=4−12. *) P<0.04, **) P<0.003.
Romaine lettuce heads were purchased from local grocery stores. Outer leaves were removed and undamaged leaves were selected. The leaves were rinsed in 0.1% bleach and incubated in plastic containers on filter paper moistened with 10 mM MgSO4. Overnight cultures of P. aeruginosa were diluted to 10^8 CFU/ml in 10 mM MgSO4 and supplemented with 200 μg/ml of each peptide. Ten μl (10^6 CFU, 2 μg peptide) were injected into the midrib of each leaf using a micro pipetter. Blank controls were incubated with buffer only, and bacterial controls were incubated without peptide. The plastic trays were covered and incubated at 35° C. Leaves were inspected daily for browning around the injection site or along the midrib. Generally rotting or moldy leaves were discarded. Infection was scored on a scale from 0% to 100% relative to blank controls and bacterial controls, respectively.

The subject of series [5] is Aggregatibacter (Actinobacillus) actinomycetemcomitans JP2. It counts as cell-based. The note with it: 10 or 100 μg/ml. The method, then: The PSP peptides GL13, GK7 and KL11, lysozyme, LL37 or no peptide (BLK) were incubated with P. aeruginosa (FIG. 3A) or A. actinomycetemcomitans (FIG. 3B). P. aeruginosa PAO1 (10^5 cells/ml) were incubated for 2 h at 35° C. with 10 μg/ml (open bars) or 100 μg/ml (shaded bars) of each peptide. A. actinomycetemcomitans JP2 (10^5 cells/nil) were incubated for 4 h at 37° C. under reduced oxygen conditions. Bacterial cultures were diluted and plated on LB agar (Pseudomonas) or BHI agar plates (A.a., low oxygen incubation) and surviving CFUs enumerated. The data are shown as mean±SEM, P. aeruginosa: N=8−22 at 100 μg/ml, N=2−10 at 10 μg/ml. A. actinomycetemcomitans: N=3. *) P<0.0001, **) P<0.004, ***) P<0.02
Overnight cultures of bacteria were pelleted and resuspended in 10 mM sodium phosphate, pH 7.4 (10^5 CFU/ml). Diluted bacteria (100 μl) were incubated with 10 or 100 μg/ml of each peptide in 10 mM sodium phosphate, pH 7.4. P aeruginosa PAO1 were incubated for 2 h at 35° C. while A. actinomycetemcomitans JP2 were incubated for 4 h at 37° C. under reduced oxygen conditions. […]
As a second antibacterial assay, bactericidal activity was determined by incubating the peptides (10 or 100 μg/ml) with P. aeruginosa, A. actinomycetemcomitans or S. gordonii in 10 mM phosphate buffer. […]

The nature of series [6]: Affinity binding of PSP to LPS-Sepharose / immobilized LPS. The text has this:
PLUNC binds LPS, as expected from its structural similarity to LPS-Binding Protein (LBP). To determine if PSP also binds LPS, the protein was expressed in GH4C1 cells and the secretion medium was used for affinity chromatography on LPS-Sepharose. After binding, the affinity matrix was washed and then eluted with PBS+0.2 g/1 EDTA. […] The results of this experiment establish that PSP is an LPS-binding protein and provides a method for purification of PSP.
Secretion medium from GH4C1 cells was loaded on LPS-Sepharose and the unbound fraction collected (this sample was divided on two lanes for PSP-WT). The column was washed and then eluted with PBS+EDTA. The eluted beads were boiled in SDS-sample buffer to release any remaining proteins.

As to “Substance P: antibacterial cationic peptide substance P”, in series [1], the “effect on LPS binding to LBP” value was “had no effect on LPS binding to LBP” and the “Inhibition (Mean ± SEM) of LPS binding to LBP” value (“Inhibition (Mean ± SEM)” below) is −18% ± 19.
“GQIINLKASLNLL-NH2 [GL13-D/N-NH2, GQIINLKASLNLL-(CONH2)]”: the “hemagglutination (words)” value with sheep red blood cells is recorded as “caused hemagglutination”.
Take KAQEAEKLLNN [KN11]: the “Inhibition (Mean ± SEM)” value in series [1] was 36% ± 13.
With “lysozyme: Lysozyme (egg white) from Fisher Scientific, established antimicrobial protein [reference compound]”, the “reduction of growth of P. aeruginosa” value in the series with P. aeruginosa PAO1 [2] (broth dilution assay) is on record as “about 50%”. For the same molecule, the MIC result against P. aeruginosa PAO1 [2] (two-fold serial dilutions starting at 84 μg/ml) is “did not exhibit a defined MIC”. The “growth inhibition of A. actinomycetemcomitans” value in series [3] is on record as “did not inhibit growth of A. actinomycetemcomitans”. In the series with P. aeruginosa PAO1 [4], the “bacterial growth in biofilm/adhesion assay” value is listed as “affected neither growth nor biofilm formation; also recorded: affected neither growth nor adhesion” and the “biofilm formation / adhesion” value is “affected neither growth nor biofilm formation; also recorded: affected neither growth nor adhesion”. Also, the “infection of lettuce leaves” value in the series with P. aeruginosa was “significantly reduced the infection”.
As for `CC[C@H](C)[C@H](NC(=O)[C@H](CCCCN)NC(=O)[C@H](CCC(=O)O)NC(=O)[C@H](CCCCN)NC(=O)[C@H](CO)NC(=O)[C@H](CCCCN)NC(=O)[C@H](CCCNC(=N)N)NC(=O)[C@H](Cc1ccccc1)NC(=O)[C@H](Cc1ccccc1)NC(=O)[C@H](CC(=O)O)NC(=O)CNC(=O)[C@H](CC(C)C)NC(=O)[C@@H](N)CC(C)C)C(=O)NCC(=O)N[C@@H](CCCCN)C(=O)N[C@@H](CCC(=O)O)C(=O)N[C@@H](Cc1ccccc1)C(=O)N[C@@H](CCCCN)C(=O)N[C@@H](CCCNC(=N)N)C(=O)N[C@H](C(=O)N[C@H](C(=O)N[C@@H](CCC(N)=O)C(=O)N[C@@H](CCCNC(=N)N)C(=O)N[C@H](C(=O)N[C@@H](CCCCN)C(=O)N[C@@H](CC(=O)O)C(=O)N[C@@H](Cc1ccccc1)C(=O)N[C@@H](CC(C)C)C(=O)N[C@@H](CCCNC(=N)N)C(=O)N[C@@H](CC(N)=O)C(=O)N[C@@H](CC(C)C)C(=O)N[C@H](C(=O)N1CCC[C@H]1C(=O)N[C@@H](CCCNC(=N)N)C(=O)N[C@H](C(=O)N[C@@H](CCC(=O)O)C(=O)N[C@@H](CO)C(=O)O)[C@@H](C)O)C(C)C)[C@@H](C)CC)C(C)C)[C@@H](C)CC` [LL37, reference compound], the “hemagglutination (words)” value in the series with sheep red blood cells is “did not cause hemagglutination”. Also, in series [5], the “killing of A. actinomycetemcomitans” value came out at 100%.
As to GQIINLKASLDLL [GL13-OH, GQIINLKASLDLL], in the series with sheep red blood cells, the “hemagglutination (words)” value is given as “caused hemagglutination”.
Consider KLLNNVISK [KK9], for which the “Inhibition (Mean ± SEM)” value in series [1] is reported as 34% ± 12.

B1: PSP: human Parotid Secretory Protein (SPLUNC2, C20ORF70), SEQ ID NO:6 (protein, listed as Homo sapiens)
chain: MLQLWKLVLLCGVLTGTSESLLDNLGNDLSNVVDKLEPVLHEGLETVDNTLKGILEKLKVDLGVLQKSSAWQLAKQKAQEAEKLLNNVISKLLPTNTDIFGLKISNSLILDVKAEPIDDGKGLNLSFPVTANVTVAGPIIGQIINLKASLDLLTAVTIETDPQTHQPVAVLGECASDPTSISLSLLDKHSQIINKFVNSVINTLKSTVSSLLQKEICPLIRIFIHSLDVNVIQQVVDNPQHKTQLQTLI
As for B1, in series [6], the “binding of PSP to LPS” value is reported as “quantitatively retained by the LPS affinity matrix; also recorded: bound to immobilized P. aeruginosa LPS”.
